Experimental data as given in patent US10954269B2, “Anti-inflammatory tripeptides” (Dr. August Wolff Gmbh & Co. KG Arzneimittel, priority 2013, dated 2021).

Key:
[1] = test system: primary murine T-cells; experiment: Cytokine secretion on protein level in activated primary murine T-cells (13-plex FACS / Luminex, supernatant); type: cell-based, C57BL/6 mice; settings: substance 10^−9M
Description: (§1) Primary T-cells were isolated from peripheral blood from healthy volunteers and from secondary lymphatic organs from naïve C57BL/6 mice, respectively. The cells were stimulated with phorbol-12-myristate-13-acetate (PMA)/Ionomycin and interferon-gamma (IFN-γ), respectively, for 48 h to activate the cells. The activated cells release pro-inflammatory cytokines. In parallel a human (HaCaT) keratinocyte cell line was activated with PMA/Ionomycin and IFN-γ, respectively, too. […] At the same time release of anti-inflammatory IL-10 was inhibited. Two days after addition of PMA/Ionomycin and IFN-γ, respectively, the induction of IL-1 secretion was determined in the supernatant for proving that the cells are activated. […] The anti-inflammatory properties of the tripeptides were determined 48 h and 72 h following stimulation. A 13-plex-system based FACS analysis was used for showing the reduced secretion of pro-inflammatory cytokines in the supernatant. Data for IL-1, IL-2, IL-6, IL-12p70 IL-17, IFN-γ and TNF-α are considered to be most relevant. Thus, analysis of the anti-inflammatory properties of the tripeptides is preferably based on the results obtained for these analytes. […] Using this method the gene expression of pro-inflammatory markers like IL-6, IL-17, IFN-γ and TNF-α was determined.
(§2) In a third experiment murine and human T cells and HaCaT cells were stimulated with PMA/Ionomycin and treated with Examples 14, 15, 16 and 17 at 10^−7 M, 10^−9 M and 10^−11 M. Cytokine concentrations (IFN-γ, IL-17 and IL-10 for T cells and IFN-γ for HaCat) were assessed in the supernatants using the Luminex technology. Expression of genes coding for Il-1β, IL-6 and TNF-α was determined. […] Moreover, concentrations of pro-inflammatory cytokines IFN-γ and IL-17 was reduced in the supernatants whereas the concentration of anti-inflammatory cytokine IL-10 was increased.
The anti-inflammatory and immunomodulatory effects of selected examples of the present invention were compared with common immunosuppressants. Thus, cells activated with PMA/Ionomycin and IFN-γ, respectively, were stimulated with MMF or dexamethasone. Following stimulation the secretion of pro-inflammatory cytokines was analyzed on protein and gene level (Table 9 and FIGS. 4-6).

[2] = test system: primary human T-cells; experiment: Cytokine secretion on protein level in activated primary human T-cells (13-plex FACS / Luminex, supernatant); type: cell-based; settings: substance 10^−9M
Description: as §1
as §2, with “increased. […]” for “increased.”
For the biological assay two human cell lines of different origin were chosen to allow for translation of the results obtained. A HaCaT cell is a cell type belonging to an immortal human keratinocyte line used in scientific research. Its use in research allows for the characterization of human keratinocyte using a model that is reproducible and representing a human epithelial cell line. In contrast human T-lymphocytes (T-cells) are a type of lymphocyte (itself a type of white blood cell) that play a central role in cell-mediated inflammation/immunity.

[3] = primary murine T-cells stimulated with PBS
[4] = primary murine T-cells stimulated with PMA/Ionomycin
[5] = primary human T-cells stimulated with IFN-γ
[6] = primary human T-cells stimulated with PBS
[7] = primary human T-cells stimulated with PMA/Ionomycin

SMILES: COc1c(C)c2c(c(O)c1C/C=C(\C)CCC(=O)OCCN1CCOCC1)C(=O)OC2 [MMF, mycophenolate mofetil, reference compound]
- IL-13 cytokine concentration [1, 3]: 0 pg/mL
- IL-17 cytokine concentration [1, 3]: 0 pg/mL
- IL-21 cytokine concentration [1, 3]: 0 pg/mL
- IL-22 cytokine concentration [1, 3]: 90.45 pg/mL
- IL-27 cytokine concentration [1, 3]: 80.11 pg/mL
- TNF-α cytokine concentration [1, 3]: 88.47 pg/mL
- IFN-γ cytokine concentration [1, 4]: 1808.99 pg/mL
- IL-1 cytokine concentration [1, 4]: 158.59 pg/mL
- IL-2 cytokine concentration [1, 4]: 109.88 pg/mL
- IL-4 cytokine concentration [1, 4]: 64.89 pg/mL
- IL-5 cytokine concentration [1, 4]: 200.98 pg/mL
- IL-6 cytokine concentration [1, 4]: 169.84 pg/mL
- IL-10 cytokine concentration [1, 4]: 995.6 pg/mL
- IL-13 cytokine concentration [1, 4]: 0 pg/mL
- IL-17 cytokine concentration [1, 4]: 67 pg/mL
- IL-21 cytokine concentration [1, 4]: 0 pg/mL
- IL-22 cytokine concentration [1, 4]: 111.98 pg/mL
- IL-27 cytokine concentration [1, 4]: 102.96 pg/mL
- TNF-α cytokine concentration [1, 4]: 50.14 pg/mL
- IL-1 cytokine concentration [2, 5]: 0 pg/mL
- IL-2 cytokine concentration [2, 5]: 0 pg/mL
- IL-4 cytokine concentration [2, 5]: 0 pg/mL
- IL-5 cytokine concentration [2, 5]: 0 pg/mL
- IL-6 cytokine concentration [2, 5]: 62.15 pg/mL
- IL-9 cytokine concentration [2, 5]: 0 pg/mL
- IL-10 cytokine concentration [2, 5]: 0 pg/mL
- IL-12 cytokine concentration [2, 5]: 0 pg/mL
- IL-13 cytokine concentration [2, 5]: 0 pg/mL
- IL-17 cytokine concentration [2, 5]: 0 pg/mL
- IL-22 cytokine concentration [2, 5]: 0 pg/mL
- TNF-α cytokine concentration [2, 5]: 0 pg/mL
- IFN-γ cytokine concentration [2, 6]: 0 pg/mL
- IL-1 cytokine concentration [2, 6]: 0 pg/mL
- IL-2 cytokine concentration [2, 6]: 39.68 pg/mL
- IL-4 cytokine concentration [2, 6]: 0 pg/mL
- IL-5 cytokine concentration [2, 6]: 0 pg/mL
- IL-6 cytokine concentration [2, 6]: 94.62 pg/mL
- IL-9 cytokine concentration [2, 6]: 28.13 pg/mL
- IL-10 cytokine concentration [2, 6]: 79.26 pg/mL
- IL-12 cytokine concentration [2, 6]: 0 pg/mL
- IL-13 cytokine concentration [2, 6]: 79.09 pg/mL
- IL-17 cytokine concentration [2, 6]: 71.42 pg/mL
- IL-22 cytokine concentration [2, 6]: 0 pg/mL
- TNF-a cytokine concentration [2, 6]: 53.91 pg/mL
- IFN-γ cytokine concentration [2, 7]: 9491.25 pg/mL
- IL-1 cytokine concentration [2, 7]: 505.05 pg/mL
- IL-2 cytokine concentration [2, 7]: 1498.52 pg/mL
- IL-4 cytokine concentration [2, 7]: 29.49 pg/mL
- IL-5 cytokine concentration [2, 7]: 309.88 pg/mL
- IL-6 cytokine concentration [2, 7]: 1198.6 pg/mL
- IL-9 cytokine concentration [2, 7]: 339.89 pg/mL
- IL-10 cytokine concentration [2, 7]: 814.79 pg/mL
- IL-12 cytokine concentration [2, 7]: 0 pg/mL
- IL-13 cytokine concentration [2, 7]: 1072.09 pg/mL
- IL-17 cytokine concentration [2, 7]: 1097.19 pg/mL
- IL-22 cytokine concentration [2, 7]: 0 pg/mL
- TNF-a cytokine concentration [2, 7]: 3987.21 pg/mL
